Laboratory results taken from patent publication US9757375B2, “Compounds that inhibit human DNA ligases and methods of treating cancer” (University of Maryland, Baltimore, priority 2007, dated 2017).
Like-named read-outs stand apart in the source and are kept apart here. Marks after values point to notes of the source that are not given here. Each block holds one molecule with its values, some of them ahead of it.

Tests used:
MCF10A cells [1] = test: Screen for potentiation of DNA damaging agents (MMS, camptothecin, cis-platinum, 3 aminobenzamide, ionizing radiation); format: cell-based, human; details: compound alone vs combination with MMS (100 μM); 1 = no sensitization
Text: The 192 human DNA ligase inhibitors were screened in parallel for effects on proliferation and the ability to potentiate the effects of several DNA damaging agents using two cell human lines, a colon cancer line HCT116 and a normal breast epithelial cell line MCF10A using a Biomek FX Laboratory Automation Workstation as described (23). The DNA damaging agents used, methyl methanesulfonate (MMS), camptothecin, cis-platinum, 3 aminobenzamide and ionizing radiation, are representatives of classes of agents used to treat cancer. Briefly, HCT116 and MCF10A cells were plated in 96 well plates such that the cultures were about 80% confluent after 5 days incubation. Compounds were added to the cultures at either 15 μM or 50 μM 1 day after plating. After incubation for 3 days, cell lysed in a solution containing 1.2% Igepal CA-630 and SYBR green that stains DNA (1:1000, Molecular Probes, Eugene, Oreg.). Subsequently, fluorescence was measured per well. The studies with DNA damaging agents were performed as follows. […] Cultures were incubated for 3 days and then treated as above.

human DNA ligase III = target: T1, human DNA ligase III (Homo sapiens, UniProt P49916); test: High-throughput fluorescence-based DNA joining (ligation) assay; format: biochemical; details: for inhibition at 100 µM: read-out: % of inhibition @ 100 μM (Helen's data) hLigIII
T1 sequence (P49916 1-862 isoform P49916-4): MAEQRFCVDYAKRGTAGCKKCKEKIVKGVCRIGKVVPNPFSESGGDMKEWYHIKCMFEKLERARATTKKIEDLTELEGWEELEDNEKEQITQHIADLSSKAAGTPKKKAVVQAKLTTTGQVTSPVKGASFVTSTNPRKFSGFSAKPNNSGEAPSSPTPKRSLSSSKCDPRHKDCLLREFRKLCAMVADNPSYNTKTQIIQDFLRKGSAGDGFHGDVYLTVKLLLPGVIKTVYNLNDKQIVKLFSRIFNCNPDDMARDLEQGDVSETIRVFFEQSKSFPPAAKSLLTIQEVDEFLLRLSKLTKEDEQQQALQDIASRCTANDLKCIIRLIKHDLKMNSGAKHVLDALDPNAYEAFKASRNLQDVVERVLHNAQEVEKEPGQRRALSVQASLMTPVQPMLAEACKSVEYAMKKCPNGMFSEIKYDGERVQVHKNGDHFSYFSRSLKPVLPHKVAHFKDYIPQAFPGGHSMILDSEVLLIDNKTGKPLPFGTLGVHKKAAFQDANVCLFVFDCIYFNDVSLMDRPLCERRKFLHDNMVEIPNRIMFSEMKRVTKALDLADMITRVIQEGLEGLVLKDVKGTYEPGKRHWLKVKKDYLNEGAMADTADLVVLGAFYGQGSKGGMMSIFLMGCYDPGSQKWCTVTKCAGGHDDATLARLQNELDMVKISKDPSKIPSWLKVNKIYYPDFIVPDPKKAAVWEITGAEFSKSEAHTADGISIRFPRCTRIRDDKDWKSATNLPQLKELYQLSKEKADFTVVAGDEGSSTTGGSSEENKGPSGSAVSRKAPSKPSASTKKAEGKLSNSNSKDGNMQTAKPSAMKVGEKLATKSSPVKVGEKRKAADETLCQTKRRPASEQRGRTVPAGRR
Text: (§1) The method for screening compounds comprises testing the compound for the ability to inhibit human DNA ligases I, III and IV with a high throughput fluorescence-based ligation assay. In this assay, phosphodiester bond formation covalently links together two oligonucleotides, one of which is a fluorescent donor AF488 that is 11 nucleotides from the 3′ terminus and the other contains a fluorescence acceptor and quencher, BHQ1 that is 15 nucleotides from the 5′ terminus. When these oligonucleotides are present in separate duplexes and in the same nicked or intact duplex, there is no significant quenching of fluorescence because the donor and acceptor are too far apart. As single-strands neither the AF488 oligonucleotide nor the BHQ1 oligonucleotides have significant secondary structure. However, when these oligonucleotides are ligated together, the resultant single strand forms a stable hairpin structure, in which the AF488 and BHQ1 groups are very close together, resulting in efficient intra-molecular quenching of fluorescence. Thus, in the DNA joining assay, the DNA substrate is denatured after incubation with the DNA ligase and then renatured in the presence of a 20-fold excess of an oligonucleotide that is identical to the ligated strand containing the fluorescent door and acceptor except that it lacks these modifications. Using this assay, DNA joining, which results in reduced fluorescence at 518 nm, can be measured rapidly, quantitatively and with high-throughput using a fluorescence plate reader.
(§2) Applicants developed a novel high throughput fluorescence-based ligation assay by modifying the sequence of the oligos to optimize hairpin formation by the single strand ligated product of the high throughput fluorescence-based ligation assay of Chen et al (22). […] Compound stock solutions, which were 10 mM in 0.5% DMSO, were diluted in 0.5% DMSO. Human DNA ligases I and III were assayed with a nicked DNA substrate whereas as the substrate for human DNA ligase IV was two oligonucleotide duplexes with short complementary single strand ends.

human DNA ligase IV = human DNA ligase IV (Homo sapiens, UniProt P49917); test: as above; format: biochemical; details: 100 μM; for inhibition at 100 µM: read-out: % of inhibition @ 100 μM (Helen's data) hLigIV
Chain of human DNA ligase IV (P49917 whole entry): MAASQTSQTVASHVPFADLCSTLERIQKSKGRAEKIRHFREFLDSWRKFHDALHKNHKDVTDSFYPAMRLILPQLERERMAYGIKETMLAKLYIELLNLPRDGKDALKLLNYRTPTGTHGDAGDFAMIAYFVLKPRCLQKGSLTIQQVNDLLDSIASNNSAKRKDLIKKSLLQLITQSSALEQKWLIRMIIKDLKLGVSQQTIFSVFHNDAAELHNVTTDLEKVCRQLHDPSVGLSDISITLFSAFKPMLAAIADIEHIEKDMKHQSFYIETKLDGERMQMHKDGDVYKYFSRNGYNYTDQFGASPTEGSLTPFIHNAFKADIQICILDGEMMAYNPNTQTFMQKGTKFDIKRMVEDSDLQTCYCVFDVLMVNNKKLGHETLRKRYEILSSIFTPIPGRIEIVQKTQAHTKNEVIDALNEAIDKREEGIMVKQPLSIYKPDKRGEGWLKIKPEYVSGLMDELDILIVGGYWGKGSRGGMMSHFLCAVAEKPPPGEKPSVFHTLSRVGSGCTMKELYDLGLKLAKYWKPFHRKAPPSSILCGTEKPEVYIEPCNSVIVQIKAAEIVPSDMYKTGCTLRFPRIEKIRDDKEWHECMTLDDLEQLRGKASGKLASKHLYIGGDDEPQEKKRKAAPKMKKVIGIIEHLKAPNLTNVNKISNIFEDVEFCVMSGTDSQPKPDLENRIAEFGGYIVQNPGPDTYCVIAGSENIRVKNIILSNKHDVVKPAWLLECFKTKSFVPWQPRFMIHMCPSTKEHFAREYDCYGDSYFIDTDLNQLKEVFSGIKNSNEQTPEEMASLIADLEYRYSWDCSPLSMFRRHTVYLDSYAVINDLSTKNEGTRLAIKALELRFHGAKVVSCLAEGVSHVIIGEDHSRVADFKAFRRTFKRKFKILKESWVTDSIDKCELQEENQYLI
Chain of human DNA ligase IV (Q13426 whole entry partner): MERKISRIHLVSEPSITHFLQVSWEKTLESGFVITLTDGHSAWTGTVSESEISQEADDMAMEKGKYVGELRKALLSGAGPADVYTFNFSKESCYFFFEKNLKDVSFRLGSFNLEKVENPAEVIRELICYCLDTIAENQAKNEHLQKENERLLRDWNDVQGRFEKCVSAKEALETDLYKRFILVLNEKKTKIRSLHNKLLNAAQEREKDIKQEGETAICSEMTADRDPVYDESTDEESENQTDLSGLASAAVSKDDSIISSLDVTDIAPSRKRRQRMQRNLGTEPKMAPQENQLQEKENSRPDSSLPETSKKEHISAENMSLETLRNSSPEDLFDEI
Text: as §1, §2

HCT116 cells = test: MTT cell growth assay; format: cell-based, human; details: Homo sapiens, HCT-116
Procedure: (§3) The activity of hits from the initial screen was further validated using the MTT assay. Briefly, MCF10A and HCT116 cells were seeded in 96 well plates at 300 and 1200 cells per well, respectively, and allowed to adhere overnight. The following day, serial dilutions of compounds in media were added to the cells in a final volume 200 μl. After incubation for 5 days, MTT reagent (3-(4,5-dimthylthiazol-2-yl)-2,5-diphenyltatrazolium) was added and incubation was continued for 4 h. Formazan crystals generated by reduction of the MTT reagent in mitochondria were solubilized with isopropanol prior to the measurement of absorbance at 560 nm wavelength in a plate reader.
After incubation for 5 days, cell growth was measured by the MTT assay (16).

MCF10A cells [2] = test: MTT cell growth assay; format: cell-based, human; details: for IC50: Homo sapiens, MCF-10A
Procedure: as §3
To extend the results of the […] cell culture screening assay, a subset of compounds were tested in larger cultures. Different concentrations of Compounds 67 and 151 were added to asynchronous subconfluent populations of HCT116 and MCF10A cells. Asynchronous subconfluent populations of HCT116 and MCF10A cells were pre-treated with different concentrations of compound 64 prior to the addition of 3 aminobenzamide (2 mM) MMS (100 μM) or cis-platinum (1 μM). After incubation for 5 days, cell growth was measured by the MTT assay (16).

hLigI = target: T2, hLigI (Homo sapiens, UniProt P18858); test: High-throughput fluorescence-based DNA joining (ligation) assay; format: biochemical; details: for inhibition at 100 µM: read-out: % of inhibition @ 100 μM (Helen's data) hLigI
T2 construct: made in house
T2 sequence (P18858 whole entry): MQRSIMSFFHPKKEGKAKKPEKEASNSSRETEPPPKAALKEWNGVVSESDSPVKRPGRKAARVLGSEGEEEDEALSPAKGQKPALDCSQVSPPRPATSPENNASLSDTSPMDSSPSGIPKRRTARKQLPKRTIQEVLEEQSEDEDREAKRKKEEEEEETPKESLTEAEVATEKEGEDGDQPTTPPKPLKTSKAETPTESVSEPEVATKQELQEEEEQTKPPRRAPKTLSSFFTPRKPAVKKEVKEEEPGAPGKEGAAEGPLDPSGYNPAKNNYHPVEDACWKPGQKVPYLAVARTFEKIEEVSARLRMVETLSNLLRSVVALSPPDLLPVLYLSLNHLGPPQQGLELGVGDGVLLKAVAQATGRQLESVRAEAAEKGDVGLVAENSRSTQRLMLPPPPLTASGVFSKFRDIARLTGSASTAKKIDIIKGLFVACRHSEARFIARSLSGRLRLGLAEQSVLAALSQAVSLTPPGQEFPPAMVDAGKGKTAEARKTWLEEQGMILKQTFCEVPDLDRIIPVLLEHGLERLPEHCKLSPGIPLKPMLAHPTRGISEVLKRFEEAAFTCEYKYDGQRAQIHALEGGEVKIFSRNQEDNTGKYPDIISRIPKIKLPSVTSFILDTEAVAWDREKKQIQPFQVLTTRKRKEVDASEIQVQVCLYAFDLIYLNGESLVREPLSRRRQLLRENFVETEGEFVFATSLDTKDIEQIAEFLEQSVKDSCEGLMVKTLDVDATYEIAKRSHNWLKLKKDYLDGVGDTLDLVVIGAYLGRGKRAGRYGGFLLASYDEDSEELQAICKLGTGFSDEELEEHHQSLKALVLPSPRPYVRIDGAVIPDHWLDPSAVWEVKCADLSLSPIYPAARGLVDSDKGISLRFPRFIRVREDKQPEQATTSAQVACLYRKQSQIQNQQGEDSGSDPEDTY
Procedure: Candidate ligase inhibitors identified by CADD were assayed for their ability to inhibit hLigI and T4 DNA ligase using a high-throughput, fluorescence energy transfer-based DNA joining assay (22). Duplicate reactions (30 μL) containing 10 pmol of nicked DNA substrate and either 0.25 pmol of hLigI or 10 units of T4 DNA ligase were incubated in the presence or absence of 100 μmol/L of the putative inhibitor. DNA binding by the candidate DNA ligase inhibitors was measured by displacement of ethidium bromide from DNA as previously described (30).
as §1, §2

MCF10A cells [3] = test: Cell proliferation screen (SYBR Green, Biomek FX); format: cell-based, human; details: 50 μM; percentage of values obtained with DMSO alone
Procedure: The ability of the compounds identified by CADD to inhibit proliferation of normal mammary epithelial MCF10A cells and colon carcinoma HCT116 cells was determined using a Biomek FX Laboratory Automation Workstation (Beckman Coulter, Inc., Fullerton, Calif.). On day 0, 20 μl of complete medium containing the appropriate number of cells (150-300) was plated per well of a 384-well tissue plate (Fisher Scientific, Hampton, N.H.) and incubated overnight at 37° C. with 5% CO2 and 90% humidity. Next day, day 1, compounds were prepared by serial dilution with complete medium to yield the concentration 100 μM, and 20 μl was added to each well containing 20 μl of medium and cells yielding the final concentration 50 μM in 40 μl volume. Plates were incubated for additional 3 days (days-2-5) until control cells (0.5% DMSO) reached ˜70-80% confluency. On day 6, 40 μl of lysis/detection solution containing 1.2% Igepal CA-630 (Sigma) and a 1:1000 dilution of SYBR Green I nucleic acid stain (Molecular Probes, Eugene, Oreg.) was added to each well. Following an overnight incubation at 37° C., total fluorescence was measured using a Fluorostar Galaxy plate reader with a 485 nm excitation filter and 520 nm emission filter set (BMG Labtech, Inc., Durham, N.C.). Data was exported to a custom program that determined growth inhibition by dividing each individual fluorescence value by the average of fluorescence values obtained with cells treated with DMSO alone.
The 192 human DNA ligase inhibitors were screened in parallel for effects on proliferation and the ability to potentiate the effects of several DNA damaging agents using two cell human lines, a colon cancer line HCT116 and a normal breast epithelial cell line MCF10A using a Biomek FX Laboratory Automation Workstation as described (23). The DNA damaging agents used, methyl methanesulfonate (MMS), camptothecin, cis-platinum, 3 aminobenzamide and ionizing radiation, are representatives of classes of agents used to treat cancer. Briefly, HCT116 and MCF10A cells were plated in 96 well plates such that the cultures were about 80% confluent after 5 days incubation. Compounds were added to the cultures at either 15 μM or 50 μM 1 day after plating. After incubation for 3 days, cell lysed in a solution containing 1.2% Igepal CA-630 and SYBR green that stains DNA (1:1000, Molecular Probes, Eugene, Oreg.). Subsequently, fluorescence was measured per well. The studies with DNA damaging agents were performed as follows. […] For ionizing radiation, cells were pre-incubated with the compounds at 50 μM for 1 hour prior to exposure to 2 gray of ionizing radiation. Cultures were incubated for 3 days and then treated as above.

[4] = sections 'high concentrations (~50 μM)' and 'active in vitro that decreased cell growth', same figures given in μM elsewhere in Table 6, read-out: IC50 MCF10A (head without unit)

- inhibition at 100 µM (human DNA ligase III): < 20%
- inhibition at 100 µM (human DNA ligase IV): < 20%
- IC50 (HCT116 cells; cell growth, compound alone, read-out: IC50 (μM) HCT116): 50 µM
- IC50 (HCT116 cells; sections 'high concentrations (~50 μM)' and 'active in vitro that decreased cell growth', same figures given in μM elsewhere in Table 6, read-out: IC50 HCT116 (head without unit)): ≥ 50 µM
- inhibition at 100 µM (hLigI; 100 μM): < 20%
SMILES: C=CCN1C(=O)/C(=C\c2ccccc2C(=O)O)SC1=S [Compound 159]
- MMS: Ratios of IC50 MCF10A (MCF10A cells [1]): Ni
- IC50 (MCF10A cells [2]; [4]): > 50 µM

- % of inhibition @ 100 μM (Helen's data) hLigIII (human DNA ligase III; 100 μM): NI (NI- no inhibition)
- % of inhibition @ 100 μM (Helen's data) hLigIV (human DNA ligase IV): NI (NI- no inhibition)
- % of inhibition @ 100 μM (Helen's data) hLigI (hLigI; 100 μM): NI (NI- no inhibition)
SMILES: CC(C(=O)Nc1cccc(C(=O)O)c1)N(C)S(=O)(=O)c1ccccc1 (stereo not drawn) [Compound 199]
- inhibition of cell proliferation of MCF10A at 50 μM (MTT) (MCF10A cells [2]; 50 μM, numbers printed under MCF10A in r92-r106: 79, 124, 130, 193, 197, 198, 199 (30%), 214, 221): 199^t (30%)

- inhibition of hLigI (DNA ligase I), in words (hLigI; in vitro screen, 100 μmol/L, the 15 hLigI inhibitors inhibited by >50%): inhibited hLigI
SMILES: O=C1N/C(=N\c2ccccc2)S/C1=C/c1ccc(-c2cccc(C(=O)O)c2)o1 [Compound 202]
- Growth_Inh % (50 μM) MCF10A (MCF10A cells [3]): 50%

- inhibition at 100 µM (human DNA ligase III): 24%
- inhibition at 100 µM (human DNA ligase IV): < 20%
- inhibition at 100 µM (hLigI; 100 μM): 21%
SMILES: O=c1[nH]cc(/C=N/Nc2ncnc3[nH]cnc23)c(=O)[nH]1 [Compound 208]
- IC50 (MCF10A cells [2]; cell growth, compound alone, read-out: IC50 (μM) MCF10A): 40 µM
- IC50 (MCF10A cells [2]; [4]): 40 µM
